Reference: US4371540A, “Nitroimidazoles of low toxicity and high activity as radiosensitizers of hypoxic tumor cells” (priority 1980, dated 1983)
In brackets after ≈: the same amount, converted by molar mass.

Assays:
[1] = 1-electron reduction potential / electron affinity; format: physicochemical; conditions: for E7^1 (1-electron reduction potential): Table 1; for electron affinity relative to MIS: in words
in vivo [2] = conditions: mouse
physchem [3] = conditions: octanol:water
BALB/c mice = conditions: for acute toxicity relative to MIS: from LD50 data of Table 1
hypoxic tumor cells = conditions: cited from earlier work
[4] = accelerated rotarod neurotoxicity test; conditions: for Dose to Give Equivalent Neurotoxicity Relative to MIS: daily dosing, MIS = 1; for factor by which less neurotoxic than MIS: at least a factor of
Source text: Performance and toxicity determinations were made after four-and-one-half weeks of daily dosing.

[5] = peak tumor concentration in dogs bearing spontaneous tumors; conditions: for Mean Peak Tumor Concentration: dogs with spontaneous tumors, i.v. bolus 0.5 micromoles/g
[6] = plasma pharmacokinetics and neural tissue exposure (AUC) in dogs; conditions: for AUC / clearance: dog; for AUC: 500 umol/kg; for AUC PNS: peripheral nerve
Procedure: (§1) The imidazoles were formulated in a 0.9% sodium chloride solution at a concentration of 5%. Doses of 0.25-1.0 mmole/kg of each compound were administered to normal adult, male cross-bred dogs and subsequent plasma concentrations were monitored by high performance liquid chromatography. Samples of brain, cerebrospinal fluid (CSF), and peripheral nerve (PNS) were removed for assay from similarly dosed dogs over the same test period.

physchem [7] = conditions: 0.9% saline
[8] = method of Fujita et al
[9] = for tumor/brain ratio relative to MIS: i.p., EMT6 tumor bearing mice, FIGS. 1 and 2; for crossing of the blood/brain barrier relative to MIS: in words
Procedure: Each test compound was formulated immediately before administration to the animals in Hanks' balanced salt solution at a concentration such that the volume injected intraperitoneally was 0.05 ml per g body weight.
The mice were injected intraperitoneally and at various times were bled by cardiac puncture under anesthesia. Plasma was obtained by centrifugation and stored frozen at -20° C. The tumor and whole brain were taken immediately after cardiac puncture and stored frozen at -20° C.
The brain/plasma ratio is the mean value from all the mice for each compound.

in vivo [10] = conditions: dog
Procedure: as §1

EMT6 tumor cells = test: radiosensitization of EMT6 tumor cells; conditions: in words
tumors in vivo = tumors in vivo and cells; Brown and Lee, 1979; cited from earlier work
[11] = plasma concentration after oral administration of acetate esters versus parent drugs; format: in vivo; conditions: mice, 4 or 5 mmole/kg
[12] = dogs, standardized for 0.5 mmole/kg

In the case of O=[N+]([O-])c1nccn1CC(O)CO (stereo not shown) [Compound 6], the “E7^1 (1-electron reduction potential)” value [1] is reported as -389 mV, the LD50 (in vivo [2]) is reported as 3100 mg/kg and the logP (physchem [3]) is reported as -0.886.
In the case of COCC(O)Cn1ccnc1[N+](=O)[O-] (stereo not shown) [MIS, misonidazole, reference compound], the “E7^1 (1-electron reduction potential)” value [1] is listed as -389 mV, the “Acute LD50” value (BALB/c mice; BALB/c mice (20-25 g)) is listed as 1.8(1.3-2.6) mg/g and the “radiosensitization at recommended dose” value (hypoxic tumor cells; conventional multifraction radiotherapy regime) is listed as “suboptimal radiosensitization”. The “radiosensitizing activity relative to metronidazole” value (hypoxic tumor cells; in words) was “greater radiosensitizing activity of the two compounds”, the “clinical limitation by toxicity” value (hypoxic tumor cells; man, in words) was “limited by its neurotoxicity” and the “recommended maximum total dose (neurotoxicity)” value (hypoxic tumor cells; man, per body surface, Dische et al) was at most 12 g/m^2. For the same molecule, the “Dose to Give Equivalent Neurotoxicity Relative to MIS” value ([4]; four-and-one-half weeks) was 1, the “Mean Peak Tumor Concentration” value [5] was 0.56 μ moles.g^-1 and the AUC ([6]; cerebrospinal fluid) was 2660 µM·h. The clearance ([6]; plasma) was 1.5 mL/min/kg, the AUC ([6]; plasma) was 3680 µM·h and the “AUC PNS” value [6, 12] was 2.25 μ moles.hr.ml^ -1 or g^-1. For the same molecule, the “AUC Brain” value [6, 12] was 2.32 μ moles.hr.ml^ -1 or g^-1.
In the case of CCOCC(O)Cn1ccnc1[N+](=O)[O-] (stereo not shown) [Compound 2], the “E7^1 (1-electron reduction potential)” value [1] is reported as -391 mV, the LD50 (in vivo [2]) is reported as over 1100 mg/kg and the logP (physchem [3]) is reported as 0.104.
With C[S+]([O-])CCn1ccnc1[N+](=O)[O-] (stereo not shown) [Compound 7] the LD50 (in vivo [2]) was about 2000 mg/kg and the logP (physchem [3]) was -1.22.
COC(=O)Cn1ccnc1[N+](=O)[O-] [methyl 2-nitroimidazole-1-acetate] gave a solubility (physchem [7]) of 13.6 mg/mL (≈ 73.5 mM).
In the case of O=C(Cn1ccnc1[N+](=O)[O-])NCCO [SR-2508, N-(2-hydroxyethyl)-2-(2-nitro-1-imidazolyl)acetamide], the “E7^1 (1-electron reduction potential)” value [1] is reported as -388 mV, the “electron affinity relative to MIS” value [1] is reported as “similar” and the “octanol:water partition coefficient” value [8] is reported as 0.046. For the same molecule, the “acute toxicity relative to MIS” value (BALB/c mice) was “about three to five times less”, the “tumor/brain ratio relative to MIS” value [9] was “an order of magnitude greater than MIS” and the “crossing of the blood/brain barrier relative to MIS” value [9] was “to a lower degree than does MIS”. The LD50 (in vivo [2]) was 4900 mg/kg, the clearance (in vivo [10]) was 3.5 mL/min/kg and the logP (physchem [3]) was -1.34. For the same molecule, the solubility (physchem [7]) was about 200 mg/mL (≈ 934 mM), the “radiosensitizing efficiency relative to MIS” value (EMT6 tumor cells) was “comparable radiosensitizing activity” and the “factor by which less neurotoxic than MIS” value [4] was 3-5. For the same molecule, the “Dose to Give Equivalent Neurotoxicity Relative to MIS” value ([4]; four-and-one-half weeks) was over 3.3.
For O=C(Cn1ccnc1[N+](=O)[O-])NCC(O)CO (stereo not shown) [Compound 10], the “E7^1 (1-electron reduction potential)” value [1] is listed as -392 mV, the “radiosensitizing activity relative to MIS” value (tumors in vivo) is listed as “significantly inferior to MIS” and the LD50 (in vivo [2]) is listed as over 6100 mg/kg. It also gave a logP (physchem [3]) of -1.85.
With O=C(Cn1ccnc1[N+](=O)[O-])N(CCO)CCO [SR-2555, N,N-di-(2-hydroxyethyl)-2-(2-nitro-1-imidazolyl)acetamide] the “E7^1 (1-electron reduction potential)” value [1] was -398 mV, the “electron affinity relative to MIS” value [1] was “similar” and the “octanol:water partition coefficient” value [8] was 0.026. The “acute toxicity relative to MIS” value (BALB/c mice) was “about three to five times less”, the “tumor/brain ratio relative to MIS” value [9] was “an order of magnitude greater than MIS” and the “crossing of the blood/brain barrier relative to MIS” value [9] was “to a lower degree than does MIS”. It also gave an LD50 (in vivo [2]) of over 7700 mg/kg, a logP (physchem [3]) of -1.59 and a solubility (physchem [7]) of over 300 mg/mL. The “radiosensitizing efficiency relative to MIS” value (EMT6 tumor cells) was “comparable radiosensitizing activity”, the “factor by which less neurotoxic than MIS” value [4] was 3-5 and the “Performance Relative to Controls” value ([4]; daily dose 3.0 mg/g, four-and-one-half weeks) was 1.07 ± 0.16. For the same molecule, the “Dose to Give Equivalent Neurotoxicity Relative to MIS” value ([4]; four-and-one-half weeks) was over 5, the “Mean Peak Tumor Concentration” value [5] was 1.30 μ moles.g^-1 and the “peak tumor concentration relative to MIS” value ([5]; dogs, i.v. bolus, in words) was “considerably higher than MIS”. The “time of peak tumor concentration relative to MIS” value ([5]; dogs, i.v. bolus, in words) was “considerably earlier than MIS”, the AUC ([6]; cerebrospinal fluid, AUC CSF, dogs, standardized for 0.5 mmole/kg) was 170 µM·h and the clearance ([6]; plasma) was 4.33 mL/min/kg. For the same molecule, the AUC ([6]; plasma, AUC Plasma, dogs, standardized for 0.5 mmole/kg) was 1620 µM·h, the “clearance rate relative to MIS” value ([6]; dogs, in words) was “considerably more rapid than for MIS” and the “penetration into brain, CSF and peripheral nerves relative to MIS” value ([6]; dogs, in words) was “considerably lower”. The “total exposure of neural tissues (AUC) relative to MIS” value ([6]; dogs, in words) was “significantly smaller than for MIS”, the “AUC PNS” value [6, 12] was 0.75 μ moles.hr.ml^ -1 or g^-1 and the “AUC Brain” value [6, 12] was 0.51 μ moles.hr.ml^ -1 or g^-1.
With O=[N+]([O-])c1nccn1CC(O)CF (stereo not shown) [Compound 4] the “E7^1 (1-electron reduction potential)” value [1] was -383 mV, the LD50 (in vivo [2]) was about 900 mg/kg and the logP (physchem [3]) was -0.357.
For O=[N+]([O-])c1nccn1CCN1CCOCC1, the “E7^1 (1-electron reduction potential)” value [1] was -390 mV, the LD50 (in vivo [2]) was about 900 mg/kg and the logP (physchem [3]) was -0.0862.
With O=[N+]([O-])c1nccn1CC(O)CCl (stereo not shown) [Compound 1] the “E7^1 (1-electron reduction potential)” value [1] was -384 mV, the LD50 (in vivo [2]) was about 180 mg/kg and the logP (physchem [3]) was 0.176.
In the case of CC(=O)OCCNC(=O)Cn1ccnc1[N+](=O)[O-] [acetate ester of SR-2508], the “peak plasma concentration of SR-2508 or SR-2555 after oral ester relative to oral parent drug” value [11] is reported as “significantly higher”.
